Patent US3955959A, “Herbicide for use in transplanted rice” (priority 1974, dated 1976)

Experiments:
[1] = test system: Cd (Cyperus difformis); assay: Example 6 weed control, JAAPR, Japan; assay type: in vivo
Protocol: (§1) In this example, the efficacy of Herbicide A is presented for a variety of weeds in the presence of ordinary and infant transplant rice. In this example, tests were conducted at the said JAAPR Lab at different times of the year. "Early season" transplants were made in April and "Normal season" transplants were made in July. The size of the transplants at the respective seasons were: Season Seedling Type Plant Height (cm) Leaf Stage ______________________________________ Early Ordinary 16.5 4.5 Early Infant 9.1 2.4 Normal Ordinary 41.7 5.3 Normal Infant 14.7 1.9 ______________________________________
(§2) Duplicate treatments were used. At the time of application of the herbicide, the status of the grass (EC) was as follows: […]

[2] = test system: Lp (Lindernia pyxidaria); assay: Example 6 weed control, JAAPR, Japan; assay type: in vivo
Protocol: as §1, §2

[3] = test system: transplanted rice seedlings; assay: Example 6 rice seedling injury; assay type: in vivo
Protocol: as §1, §2

[4] = test system: Cc (Commelina communis); assay: Example 7 greenhouse preemergence activity; assay type: in vivo
Protocol: In a further comparative study of the preemergence activity of Herbicides A and B, a variety of weeds and upland direct-seeded rice were tested under greenhouse conditions. The present invention is not concerned with the use of Herbicide A in direct-seeded rice. The primary purpose of the experimental work in this example is to compare relative herbicidal activity of Herbicides A and B against the weeds shown in Table 7; most of these weeds were not available for tests with transplanted rice. Although the relative selectivity of these herbicides in upland rice is also evident, that aspect of the tests is more or less incidental to the purpose of this example.
In this example, rice seeds and seeds of the weeds shown in Table 7 were sown in Ray silt loam soil at a depth of 0.5 inch (1.27 cm) in containers for the soil in a greenhouse. Herbicides A and B were applied to the surface of the soil at a spray volume equivalent to 20 gals/acre (187.1 liters/hectare), followed by 0.5 in (1.27 cm) of overhead irrigation. Temperature and relative humidity in the greenhouse were on the order of 85°F (29°C) and 75%, respectively. Observations were made at 21-28 days after seeding.
In Table 7 are shown the average rates of herbicide required to cause a growth reduction of 85% of the weeds ("GR85 "), and the average rate of herbicide required to cause a growth reduction of 15% ("GR15 ") of the rice plants (Oryza sativa, "Os", variety Bluebelle).

[5] = test system: Ec (Echinochloa crusgalli); assay: Example 8 residual weed control, JAAPR, Japan; assay type: in vivo; conditions: Table 8 (Ec and Ri)
Protocol: This example describes the results of tests conducted at the JAAPR Laboratory in Japan to determine the comparative residual effect of Herbicide A vis-a-vis that of commercial rice herbicides in Japan.
In the tests according to this example, the test weed species Echinochloa crusgalli (Ec) and Rotala indica (Ri), were grown in clay loam soil having 2.3% organic matter and a percolation rate of 3 cm/day for 2 days. Herbicide A was applied to the weeds at an expected use rate of about 0.67-1.34 lbs/ac (0.75-1.5 kgs/ha) and the commercial rice herbicides, whose active ingredients are identified below, were applied at their indicated expected use rates: […]

[6] = test system: carp; assay: Example 10 fish toxicity, Japanese protocol; assay type: in vivo
Protocol: In view of the importance of fish toxicological considerations, tests were conducted, using carp according to the Japanese protocol, to compare toxicity data for Herbicides A and B; results of those tests are shown in Table 10.

[7] = test system: Ammannia spp, Amaranthus retroflexus, Elatine triandra, Jussiaea decurrens, Lindernia pyxidaria, Rotala Sphenoclea zeylanica and Partulaca oleracea; assay: Weeds effectively treated to date: dicotyledonous broadleaf weeds; assay type: in vivo
[8] = test system: Ek (Eleocharis kuroguwai); assay: Other tests, perennial control; assay type: in vivo
[9] = test system: Sa (Sagittaria aginashi); assay: Other tests, perennial control; assay type: in vivo
[10] = test system: weeds in transplanted rice; assay: Example 6 overall; assay type: in vivo
Protocol: as §1, §2

[11] = test system: weeds in rice fields; conditions: prior art; cited from earlier work
[12] = Early season, ordinary, 1.0 kg/ha, 3 DAT
[13] = Early season, ordinary, 1.0 kg/ha, 12 DAT
[14] = Early season, ordinary, 1.0 kg/ha, -2 DAT
[15] = Early season, ordinary, .5 kg/ha, 3 DAT
[16] = Early season, ordinary, .5 kg/ha, 12 DAT
[17] = Early season, ordinary, .5 kg/ha, -2 DAT
[18] = Normal season, infant, 1.0 kg/ha, 3 DAT
[19] = Normal season, infant, 1.0 kg/ha, 7 DAT
[20] = Normal season, infant, 1.0 kg/ha, -2 DAT
[21] = Normal season, infant, .5 kg/ha, 3 DAT
[22] = Normal season, infant, .5 kg/ha, 7 DAT
[23] = Normal season, infant, .5 kg/ha, -2 DAT
[24] = Normal season, ordinary, 1.0 kg/ha, 3 DAT
[25] = Normal season, ordinary, 1.0 kg/ha, 7 DAT
[26] = Normal season, ordinary, 1.0 kg/ha, -2 DAT
[27] = Normal season, ordinary, .5 kg/ha, 3 DAT
[28] = Normal season, ordinary, .5 kg/ha, 7 DAT
[29] = Normal season, ordinary, .5 kg/ha, -2 DAT

In the case of CCCCOCN(C(=O)CCl)c1c(C)cccc1C(C)(C)C [Herbicide A, n-(butoxymethyl)-6'-tert-butyl-2-chloro-o-acetotoluidide], the “% Weed Control (Cd)” value [1, 12] is reported as 100%, the “% Weed Control (Cd)” value [1, 13] is reported as 100% and the “% Weed Control (Cd)” value [1, 14] is reported as 100%. The “% Weed Control (Cd)” value [1, 15] was 100%, the “% Weed Control (Cd)” value [1, 16] was 100% and the “% Weed Control (Cd)” value [1, 17] was 100%. The “% Weed Control (Cd)” value [1, 18] was 100%, the “% Weed Control (Cd)” value [1, 19] was 100% and the “% Weed Control (Cd)” value [1, 20] was 100%. For the same molecule, the “% Weed Control (Cd)” value [1, 21] was 100%, the “% Weed Control (Cd)” value [1, 22] was 100% and the “% Weed Control (Cd)” value [1, 23] was 100%. For the same molecule, the “% Weed Control (Cd)” value [1, 24] was 100%, the “% Weed Control (Cd)” value [1, 25] was 100% and the “% Weed Control (Cd)” value [1, 26] was 100%. For the same molecule, the “% Weed Control (Cd)” value [1, 27] was 100%, the “% Weed Control (Cd)” value [1, 28] was 100% and the “% Weed Control (Cd)” value [1, 29] was 100%. The “% Weed Control (Lp)” value [2, 12] was 100%, the “% Weed Control (Lp)” value [2, 13] was 95% and the “% Weed Control (Lp)” value [2, 14] was 100%. For the same molecule, the “% Weed Control (Lp)” value [2, 15] was 100%, the “% Weed Control (Lp)” value [2, 16] was 85% and the “% Weed Control (Lp)” value [2, 17] was 100%. The “% Weed Control (Lp)” value [2, 18] was 100%, the “% Weed Control (Lp)” value [2, 19] was 100% and the “% Weed Control (Lp)” value [2, 20] was 100%. The “% Weed Control (Lp)” value [2, 21] was 100%, the “% Weed Control (Lp)” value [2, 22] was 100% and the “% Weed Control (Lp)” value [2, 23] was 100%. The “% Weed Control (Lp)” value [2, 24] was 100%, the “% Weed Control (Lp)” value [2, 25] was 100% and the “% Weed Control (Lp)” value [2, 26] was 100%. For the same molecule, the “% Weed Control (Lp)” value [2, 27] was 100%, the “% Weed Control (Lp)” value [2, 28] was 100% and the “% Weed Control (Lp)” value [2, 29] was 100%. For the same molecule, the “Rice Seedling Injury (%)” value [3, 12] was 5%, the “Rice Seedling Injury (%)” value [3, 13] was 0% and the “Rice Seedling Injury (%)” value [3, 14] was 10%. The “Rice Seedling Injury (%)” value [3, 15] was 0%, the “Rice Seedling Injury (%)” value [3, 16] was 0% and the “Rice Seedling Injury (%)” value [3, 17] was 10%. For the same molecule, the “Rice Seedling Injury (%)” value [3, 18] was 20%, the “Rice Seedling Injury (%)” value [3, 19] was 10% and the “Rice Seedling Injury (%)” value [3, 20] was 40%. The “Rice Seedling Injury (%)” value [3, 21] was 15%, the “Rice Seedling Injury (%)” value [3, 22] was 10% and the “Rice Seedling Injury (%)” value [3, 23] was 20%. The “Rice Seedling Injury (%)” value [3, 24] was 15%, the “Rice Seedling Injury (%)” value [3, 25] was 10% and the “Rice Seedling Injury (%)” value [3, 26] was 30%. For the same molecule, the “Rice Seedling Injury (%)” value [3, 27] was 15%, the “Rice Seedling Injury (%)” value [3, 28] was 5% and the “Rice Seedling Injury (%)” value [3, 29] was 25%. For the same molecule, the “rice toxicity, infant vs ordinary seedlings” value ([3]; infant vs ordinary) was “No difference”, the “rice toxicity, preemergence vs later treatments” value ([3]; preemergence treatments vs later) was “somewhat more toxic to rice” and the “resistance of Cc” value [4] was “resistant”. The residual activity [5] was “over 30 days”, the “toxicity to carp relative to Herbicide B” value ([6]; equal concentration basis) was “about one-half” and the “toxicity in the field relative to Herbicide B” value ([6]; taking expected use rate one-third of B) was “about one-sixth”. For the same molecule, the “effectively treated dicotyledonous broadleaf weeds” value [7] was “effectively treated”, the “control of perennial Ek” value [8] was “fair to good” and the “activity against Sa” value [9] was “generally weak”. The “weed control in words” value ([10]; all weeds except Sagittaria (Sp)) was “very effective”, the “toxicity to weeds and rice, normal vs early season” value ([10]; normal season vs early season) was “slightly more toxic to both weeds and rice” and the efficacious application period ([10]; relative to transplanting) was “from 2 days before transplanting to 12 DAT”.
For CCCCOCN(C(=O)CCl)c1c(CC)cccc1CC [Herbicide B, n-(butoxymethyl)-2',6'-diethyl-2-chloroacetanilide, reference compound], the period of application [11] is given as “only brief periods of application”.
